In patent US9487489B2, “Halogen-substituted pyrazole derivatives as pest-control agents” (BAYER CROPSCIENCE AKTIENGESELLSCHAFT, priority 2013, dated 2016):

Tests used:
[1] = test system: L1 larvae of the Australian sheep blowfly (Lucilia cuprina); assay: Lucilia cuprina test (LUCICU); format: in vivo; settings: application rate 100 ppm; after 2 days
Method in brief: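 Percent mortality read at 2 days; 100% = all larvae killed, 0% = none. Test compound, predissolved in DMSO and water-diluted to the wanted level, was mixed into minced horsemeat holding roughly 20 first-instar larvae.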

[2] = test system: adult houseflies (Musca domestica); assay: Musca domestica test (MUSCDO); format: in vivo; settings: application rate 100 ppm; after 2 days
Method in brief: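 Groups of 10 adult Musca domestica exposed to a sugar-soaked sponge treated with the water-diluted DMSO preparation of compound at the chosen concentration. Percent kill read at day 2, where 0% means no flies killed and 100% all killed.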

[3] = test system: caterpillars of the armyworm (Spodoptera frugiperda); assay: Spodoptera frugiperda spray test (SPODFR); format: in vivo; settings: maize leaf discs, after 7 days
Method in brief: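 Percent kill read at day 7 on caterpillar-infested maize leaf discs. Discs were first sprayed with aqueous emulsifier-containing (1000 ppm) preparations made from acetone/dimethylformamide solutions, and dried. Scale: 0% none dead, 100% all dead.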

[4] = test system: adult dog ticks (Rhipicephalus sanguineus); assay: Rhipicephalus sanguineus in vitro contact test with adult brown dog ticks (T2); settings: after 48 h
Method in brief: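 Acetone solutions coated onto test tube walls and floor, giving 5 μg/cm^2 at 900 ppm. Five to ten adult ticks held per tube in the dark at room temperature for 48 h, then heated at 45-50° C for up to 5 min; efficacy is the percentage of dead or moribund ticks unable to climb away.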

[5] = test system: adult cat fleas (Ctenocephalides felis); assay: Ctenocephalides felis in vitro contact test with adult cat fleas (T1); settings: after 48 h
Method in brief: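 Adult cat fleas (Ctenocephalides felis), 5-10 per tube, were exposed to the inner surface of 25 ml test tubes coated with compound in acetone. Tubes were incubated lying flat under ambient conditions. Efficacy was then read by standing tubes upright and knocking the fleas to the floor. Fleas that stayed motionless or moved uncoordinatedly counted as dead or moribund, where 100% means all fleas dead or moribund and 0% means none harmed.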

[6] = test system: greenhouse red spider mite (Tetranychus urticae); assay: Tetranychus urticae spray test, OP-resistant (TETRUR); format: in vivo; settings: bean leaf discs, after 6 days
Method in brief: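 Percent kill, scored 6 days post-spray (0% = none dead, 100% = all dead), on Phaseolus vulgaris leaf discs infested with every life stage of the OP-resistant spider mite. Compound dissolved in acetone plus DMF, diluted to test concentration with emulsifier-containing water (1000 ppm).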

[7] = test system: engorged adult female cattle ticks (Boophilus microplus); assay: Boophilus microplus injection test (BOOPMI Inj); format: in vivo; settings: application rate 20 μg/animal; injection into abdomen; assessed after 7 days
Method in brief: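 Efficacy is read at 7 days as fertile egg laying (100% = no fertile eggs laid; 0% = all eggs fertile), with eggs of unclear fertility stored until larvae hatch at about 42 days. Five engorged adult females per dose each receive an abdominal injection of 1 μl compound dissolved in DMSO.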

[8] = test system: adult castor bean ticks (Ixodes ricinus); assay: Ixodes ricinus in vitro contact test with adult castor bean ticks (T3); settings: after 48 h
Protocol: T3. Ixodes ricinus-in vitro Contact Tests with Adult Castor Bean Ticks
For the coating of the test tubes, initially 9 mg of active compound are dissolved in 1 ml of acetone p.a. and then diluted with acetone p.a. to the desired concentration. By turning and rocking on an orbital shaker (2 h of rocking rotation at 30 rpm), 250 μl of the solution are distributed homogeneously on the internal walls and the floor of a 25 ml test tube. At 900 ppm active compound solution and 44.7 cm^2 internal surface, an area dose of 5 μg/cm^2 is achieved for homogeneous distribution.
After evaporation of the solvent, the tubes are populated with 5-10 adult castor bean ticks (Ixodes ricinus), sealed with a perforated plastic lid and incubated in a horizontal position in the dark at 22° C. and 90% humidity in a climate-controlled cabinet. After 48 h, the efficacy is determined. To this end, the ticks are knocked to the floor of the tube and incubated on a hotplate at 45-50° C. for at most 5 min. Ticks which remain motionless on the floor or move in an uncoordinated manner such that they are not able to deliberately avoid the heat by climbing upwards are considered to be dead or moribund.
An efficacy of 100% means that all ticks were dead or moribund. 0% efficacy means that none of the ticks had been damaged.

[9] = test system: Tick nymphs (Amblyomma hebraeum); assay: Amblyomma hebraeum test (AMBYHE), tick nymphs immersed; format: in vivo; settings: application rate 100 ppm; immersed one minute; after 42 days
Protocol: A. Amblyomma hebaraeum Test (AMBYHE)
Solvent: dimethyl sulphoxide
To produce a suitable preparation of active compound, 10 mg of active compound are mixed with 0.5 ml of dimethyl sulfoxide, and the concentrate is diluted with water to the desired concentration.
Tick nymphs (Amblyomma hebraeum) are placed into perforated plastic beakers and immersed in the desired concentration for one minute. The ticks are transferred on filter paper into a Petri dish and stored in a climate-controlled cabinet.
After 42 days, the kill in % is determined. 100% means that all of the ticks have been killed; 0% means that none of the ticks have been killed.

[10] = test system: bont tick nymphs (Amblyomma hebraeum); settings: after 48 h

Compound	efficacy (kill in %) [1]	efficacy (kill in %) [2]	efficacy in % ([3]; application rate 100 g/ha)	efficacy (dead or moribund ticks) ([4]; application rate 1 μg/cm^2)	efficacy (dead or moribund ticks) ([4]; application rate 5 μg/cm^2)	efficacy (dead or moribund fleas) ([5]; application rate 1 μg/cm^2)	efficacy (dead or moribund fleas) ([5]; application rate 5 μg/cm^2)	efficacy in % ([6]; application rate 100 g/ha)	efficacy (laying of fertile eggs) [7]	efficacy (dead or moribund ticks) ([8]; application rate 1 μg/cm^2)	efficacy (dead or moribund ticks) ([8]; application rate 5 μg/cm^2)	efficacy (kill in %) [9]	efficacy (dead or moribund ticks) [10]	efficacy in % ([3]; application rate 500 g/ha)	efficacy in % ([6]; application rate 500 g/ha)
Cn1nc(C(F)(F)C(F)(F)F)c(C(F)(F)F)c1-n1cc(-c2ccc([N+](=O)[O-])c(C(=O)NC3CC3)c2)cn1 [Ic-66]	100%	100%	100%	100%	100%	100%	100%	100%	100%	–	–	–	–	–	–
Cn1nc(C(F)(F)C(F)(F)F)c(C(F)(F)F)c1-n1ccc(-c2ccc(Cl)c(C(=O)NC3(C#N)CC3)c2)c1 [Ia-1]	100%	80%	100%	100%	100%	100%	100%	100%	100%	100%	100%	100%	100%	–	–
Cn1nc(C(F)(F)C(F)(F)F)c(C(F)(F)F)c1-n1cc(-c2ccc(Cl)c(C(=O)NC3CC3F)c2)cn1 (centres unmarked) [Ic-81]	100%	100%	100%	100%	100%	100%	100%	100%	100%	100%	100%	–	100%	–	–
Cn1nc(C(F)(F)C(F)(F)F)c(C(F)(F)F)c1-n1cc(-c2cc(F)c(Cl)c(C(=O)NC3CC3)c2)cn1 [Ic-24]	100%	100%	–	100%	100%	100%	100%	–	100%	–	–	100%	–	100%	100%
Cn1nc(C(F)(F)C(F)(F)F)c(C(F)(F)F)c1-n1cc(-c2ccc(Cl)c(C(=O)NCC(F)F)c2)cn1 [Ic-78]	100%	100%	100%	100%	100%	100%	100%	100%	100%	–	–	–	–	–	–
Cn1nc(C(F)(F)C(F)(F)F)c(C(F)(F)F)c1-n1cc(-c2ccc(F)c(C(=O)NC3(C#N)CC3)c2)cn1 [Ic-36]	100%	100%	100%	100%	100%	100%	100%	100%	100%	–	–	100%	–	–	–
CN(C(=O)c1cc(-c2cnn(-c3c(C(F)(F)F)c(C(F)(F)C(F)(F)F)nn3C)c2)ccc1Cl)C1(C#N)CC1 [Ic-96]	100%	100%	100%	100%	100%	100%	100%	100%	100%	–	–	–	–	–	–
CCn1nc(C(F)(F)C(F)(F)F)c(C(F)(F)F)c1-n1cc(-c2ccc(Cl)c(C(=O)NC3CC3)c2)cn1 [Ic-16]	100%	100%	100%	100%	100%	100%	100%	–	100%	100%	100%	100%	100%	–	–
Cn1nc(C(F)(F)C(F)(F)F)c(C(F)(F)F)c1-n1cc(-c2cc(F)c(Cl)c(C(=O)NC3(C#N)CC3)c2)cn1 [Ic-27]	100%	100%	–	100%	100%	100%	100%	–	100%	–	–	100%	–	100%	100%
Cn1nc(C(F)(F)C(F)(F)F)c(C(F)(F)F)c1-n1cc(-c2ccc(Br)c(C(=O)NC3(C#N)CC3)c2)cn1 [Ic-34]	100%	100%	100%	80%	100%	100%	100%	100%	100%	–	–	100%	–	–	–
